Measured values published in patent publication US8871232B2, “Self-indicating wipe for removing bacteria from a surface” (Kimberly-Clark Worldwide, Inc., priority 2007, dated 2014).

Tests used:
live culture yogurt = experiment: Colour change of Reichardt's dye lines on paper towel after wiping a contaminated cutting board; conditions: VIVA paper towels sprayed with saturated Reichardt's dye in isopropanol with potassium hydroxide; cutting board with light smears of live culture yogurt
Text: Sheets of VIVA® paper towels (Kimberly-Clark Corporation, Neenah Wis.) were placed on a flat surface, three sheets wide. A stainless steel grilling grate (Weber Company, purchased from Home Depot store) was placed onto top of the sheets. Next a 100-milliliter saturated solution of Reichardt's dye in isopropanol with 10 milliliters of potassium hydroxide was placed into a container and then sprayed (Chromist sprayer) over the grilling grate with the VIVA® towels underneath. The grilling grate was removed and the towels were hung in a fumehood and allowed to dry. The paper towels now had multiple parallel lines of the Reichardt's dye across the paper towel. The lines were 4 centimeters apart. Onto a cutting board surface (plastic cutting boards, Kroger grocery store) was applied light smears (3 cm×15 cm) of live culture yogurt. Next, the treated VIVA® paper towels were used to wipe the surface of the cutting board.

S. aureus = experiment: Wipe test: removal of S. aureus from ceramic tile and transfer to clean tile, visualised with indicator spray; conditions: WTCL wipe treated with aluminum chlorohydrate (1% W/W, add-on approx. 6 to 7%) and 1% Reichardt's dye dots; 100 microliter drops of 10^7 CFU/ml S. aureus on ceramic tile; control wipe's "X" readily visible
Protocol: A wire-textured coform laminate (WTCL) was treated with aluminum chlorohydrate (1% W/W) using a dip and nip procedure, with a resulting add-on of approximately 6 to 7%. The treated WTCL was then treated with a 1% solution of Reichardt's dye indicator (prepared in acetonitrile) in a small dot pattern using a syringe. Control WTCL wipe material without aluminum chlorohydrate was also used for this experiment as a control. Two 100 microliter drops of 10^7 CFU/ml S. aureus were placed onto a ceramic tile. Treated wipe and control material were both used to wipe the drop off of the tile. These wipes were then used to make an “X” onto clean tiles. These tiles were then sprayed with bacterial indicator solution (80 mg/10 mL acetonitrile) using a Chromist® spray can. The treated WTCL was then also sprayed with the indicator. Finally, the treated wipe (now clearly visible) containing the bacteria was once again used to wipe a clean area of tile. This area was then sprayed with the indicator. The “X” for the control was readily visible.

Compound | color of the Reichardt's dye lines on contact with contaminated surface (live culture yogurt) | transfer of bacteria from used wipe to clean tile (S. aureus)
[O-]c1c(-c2ccccc2)cc(-[n+]2c(-c3ccccc3)cc(-c3ccccc3)cc2-c2ccccc2)cc1-c1ccccc1 [Reichardt's dye, 4-(2,4,6-triphenylpyridinium-1-yl)-2,6-diphenylphenolate] | rapidly discharged | 
aluminum chlorohydrate |  | did not transfer bacteria to the clean tile
